Measured values published in ChEMBL document CHEMBL5365497, “Developing Novel Coumarin-Containing Azoles Antifungal Agents by the Scaffold Merging Strategy for Treating Azole-Resistant Candidiasis” (J Med Chem, 2023).
Values after ≈ are worked out from the molar mass of the structure shown.

What was measured:
Type in all cases: functional
Candida parapsilosis = experiment: Antifungal activity against Candida parapsilosis assessed as fungal growth inhibition by CLSI based microdilution method; conditions: Lodderomyces parapsilosis
Candida tropicalis = experiment: Antifungal activity against Candida tropicalis assessed as fungal growth inhibition by CLSI based microdilution method
Candida albicans [1] = experiment: Antifungal activity against Candida albicans CPCC400616 assessed as fungal growth inhibition by CLSI based microdilution method
Candida albicans [2] = experiment: Antifungal activity against Candida albicans SC5314 assessed as fungal growth inhibition by CLSI based microdilution method
Pichia kudriavzevii = experiment: Antifungal activity against Pichia kudriavzevii assessed as fungal growth inhibition by CLSI based microdilution method
Cryptococcus neoformans = experiment: Antifungal activity against Cryptococcus neoformans assessed as fungal growth inhibition by CLSI based microdilution method
Nakaseomyces glabratus = experiment: Antifungal activity against Candida glabrata assessed as fungal growth inhibition by CLSI based microdilution method
Candida albicans [3] = experiment: Antifungal activity against fluconazole-resistant Candida albicans 904 assessed as fungal growth inhibition by CLSI based microdilution method
Candida albicans [4] = experiment: Antifungal activity against fluconazole-resistant Candida albicans CaR assessed as fungal growth inhibition by CLSI based microdilution method
Candida albicans [5] = experiment: Antifungal activity against fluconazole-resistant Candida albicans 901 assessed as fungal growth inhibition by CLSI based microdilution method
Candida albicans [6] = experiment: Antifungal activity against fluconazole-resistant Candida albicans 632 assessed as fungal growth inhibition by CLSI based microdilution method
Candida albicans [7] = experiment: Antifungal activity against fluconazole-resistant Candida albicans 17# assessed as fungal growth inhibition by CLSI based microdilution method

Structure (SMILES): COc1cccc2cc(COC(Cn3ccnc3)c3ccc(Cl)cc3Cl)c(=O)oc12 (configuration not stated)
- MIC (Candida parapsilosis): 0.5 µg/mL (≈ 1.12 µM)
- MIC (Candida tropicalis): 128 µg/mL (≈ 287 µM)
- MIC (Candida albicans [1]): 0.25 µg/mL (≈ 0.561 µM)
- MIC (Candida albicans [2]): 0.25 µg/mL (≈ 0.561 µM)
- MIC (Pichia kudriavzevii): 32 µg/mL (≈ 71.9 µM)
- MIC (Cryptococcus neoformans): 0.5 µg/mL (≈ 1.12 µM)
- MIC (Nakaseomyces glabratus): 32 µg/mL (≈ 71.9 µM)

Structure (SMILES): O=c1ccc2cc(COC(Cn3ccnn3)c3ccc(F)cc3F)ccc2o1 (configuration not stated)
- MIC (Candida parapsilosis): 128 µg/mL (≈ 334 µM)
- MIC (Candida tropicalis): > 128 µg/mL
- MIC (Candida albicans [1]): > 128 µg/mL
- MIC (Candida albicans [2]): > 128 µg/mL
- MIC (Pichia kudriavzevii): > 128 µg/mL
- MIC (Cryptococcus neoformans): > 128 µg/mL
- MIC (Nakaseomyces glabratus): > 128 µg/mL

Structure (SMILES): O=c1oc2c(Cl)cc(Cl)cc2cc1COC(Cn1ccnc1)c1ccc(F)cc1 (configuration not stated)
- MIC (Candida parapsilosis): > 128 µg/mL
- MIC (Candida tropicalis): > 128 µg/mL
- MIC (Candida albicans [1]): > 128 µg/mL
- MIC (Candida albicans [2]): > 128 µg/mL
- MIC (Pichia kudriavzevii): > 128 µg/mL
- MIC (Cryptococcus neoformans): 128 µg/mL (≈ 295 µM)
- MIC (Nakaseomyces glabratus): > 128 µg/mL

Structure (SMILES): C[C@@H](c1ncncc1F)[C@](O)(Cn1cncn1)c1ccc(F)cc1F [VORICONAZOLE]
- MIC (Candida albicans [3]): > 128 µg/mL
- MIC (Candida albicans [4]): > 128 µg/mL
- MIC (Candida albicans [5]): > 128 µg/mL
- MIC (Candida albicans [6]): 64 µg/mL (≈ 183 µM)
- MIC (Candida albicans [7]): 128 µg/mL (≈ 366 µM)

Structure (SMILES): O=c1oc2c(Cl)cc(Cl)cc2cc1COC(Cn1ccnc1)c1ccc(F)cc1F (configuration not stated)
- MIC (Candida parapsilosis): > 128 µg/mL
- MIC (Candida tropicalis): > 128 µg/mL
- MIC (Candida albicans [1]): > 128 µg/mL
- MIC (Candida albicans [2]): > 128 µg/mL
- MIC (Pichia kudriavzevii): > 128 µg/mL
- MIC (Cryptococcus neoformans): 64 µg/mL (≈ 142 µM)
- MIC (Nakaseomyces glabratus): > 128 µg/mL

Structure (SMILES): O=c1oc2ccc(F)cc2cc1COC(Cn1ccnc1)c1ccc(Cl)cc1Cl (configuration not stated)
- MIC (Candida parapsilosis): 0.5 µg/mL (≈ 1.15 µM)
- MIC (Candida tropicalis): 64 µg/mL (≈ 148 µM)
- MIC (Candida albicans [1]): 0.5 µg/mL (≈ 1.15 µM)
- MIC (Candida albicans [2]): 0.25 µg/mL (≈ 0.577 µM)
- MIC (Pichia kudriavzevii): 2 µg/mL (≈ 4.62 µM)
- MIC (Cryptococcus neoformans): 0.5 µg/mL (≈ 1.15 µM)
- MIC (Nakaseomyces glabratus): 2 µg/mL (≈ 4.62 µM)

Structure (SMILES): O=c1ccc2cc(COC(Cn3cncn3)c3ccc(F)cc3F)ccc2o1 (configuration not stated)
- MIC (Candida parapsilosis): 4 µg/mL (≈ 10.4 µM)
- MIC (Candida tropicalis): 64 µg/mL (≈ 167 µM)
- MIC (Candida albicans [1]): 8 µg/mL (≈ 20.9 µM)
- MIC (Candida albicans [2]): 0.25 µg/mL (≈ 0.652 µM)
- MIC (Pichia kudriavzevii): 32 µg/mL (≈ 83.5 µM)
- MIC (Cryptococcus neoformans): 64 µg/mL (≈ 167 µM)
- MIC (Nakaseomyces glabratus): 16 µg/mL (≈ 41.7 µM)

Structure (SMILES): O=c1oc2ccc(Cl)cc2cc1COC(Cn1ccnc1)c1ccc(Cl)cc1Cl (configuration not stated)
- MIC (Candida parapsilosis): 16 µg/mL (≈ 35.6 µM)
- MIC (Candida tropicalis): 128 µg/mL (≈ 285 µM)
- MIC (Candida albicans [1]): 16 µg/mL (≈ 35.6 µM)
- MIC (Candida albicans [2]): 0.25 µg/mL (≈ 0.556 µM)
- MIC (Pichia kudriavzevii): 128 µg/mL (≈ 285 µM)
- MIC (Cryptococcus neoformans): 16 µg/mL (≈ 35.6 µM)
- MIC (Nakaseomyces glabratus): 128 µg/mL (≈ 285 µM)

Structure (SMILES): O=c1ccc2cc(COC(Cn3ccnc3)c3ccc(F)cc3)ccc2o1 (configuration not stated)
- MIC (Candida parapsilosis): 4 µg/mL (≈ 11 µM)
- MIC (Candida albicans [3]): 32 µg/mL (≈ 87.8 µM)
- MIC (Candida albicans [4]): 128 µg/mL (≈ 351 µM)
- MIC (Candida tropicalis): 8 µg/mL (≈ 22 µM)
- MIC (Candida albicans [5]): 64 µg/mL (≈ 176 µM)
- MIC (Candida albicans [6]): 64 µg/mL (≈ 176 µM)
- MIC (Candida albicans [1]): 2 µg/mL (≈ 5.49 µM)
- MIC (Candida albicans [2]): 0.5 µg/mL (≈ 1.37 µM)
- MIC (Candida albicans [7]): 128 µg/mL (≈ 351 µM)
- MIC (Pichia kudriavzevii): 64 µg/mL (≈ 176 µM)
- MIC (Cryptococcus neoformans): 64 µg/mL (≈ 176 µM)
- MIC (Nakaseomyces glabratus): 32 µg/mL (≈ 87.8 µM)

Structure (SMILES): O=c1oc2ccccc2cc1COC(Cn1ccnn1)c1ccc(F)cc1F (configuration not stated)
- MIC (Candida parapsilosis): > 128 µg/mL
- MIC (Candida tropicalis): > 128 µg/mL
- MIC (Candida albicans [1]): > 128 µg/mL
- MIC (Candida albicans [2]): 128 µg/mL (≈ 334 µM)
- MIC (Pichia kudriavzevii): 64 µg/mL (≈ 167 µM)
- MIC (Cryptococcus neoformans): 64 µg/mL (≈ 167 µM)
- MIC (Nakaseomyces glabratus): > 128 µg/mL

Structure (SMILES): O=c1ccc2ccccc2o1 [COUMARIN]
- MIC (Candida parapsilosis): > 128 µg/mL
- MIC (Candida albicans [3]): > 128 µg/mL
- MIC (Candida albicans [4]): > 128 µg/mL
- MIC (Candida tropicalis): > 128 µg/mL
- MIC (Candida albicans [5]): > 128 µg/mL
- MIC (Candida albicans [6]): > 128 µg/mL
- MIC (Candida albicans [1]): > 128 µg/mL
- MIC (Candida albicans [2]): > 128 µg/mL
- MIC (Candida albicans [7]): 128 µg/mL (≈ 876 µM)
- MIC (Pichia kudriavzevii): > 128 µg/mL
- MIC (Cryptococcus neoformans): > 128 µg/mL
- MIC (Nakaseomyces glabratus): > 128 µg/mL

Structure (SMILES): O=c1ccc2ccc(COC(Cn3cnnn3)c3ccc(F)cc3F)cc2o1 (configuration not stated)
- MIC (Candida parapsilosis): 128 µg/mL (≈ 333 µM)
- MIC (Candida tropicalis): 64 µg/mL (≈ 167 µM)
- MIC (Candida albicans [1]): > 128 µg/mL
- MIC (Candida albicans [2]): > 128 µg/mL
- MIC (Pichia kudriavzevii): 32 µg/mL (≈ 83.3 µM)
- MIC (Cryptococcus neoformans): 8 µg/mL (≈ 20.8 µM)
- MIC (Nakaseomyces glabratus): 64 µg/mL (≈ 167 µM)

Structure (SMILES): O=c1oc2ccccc2cc1COC(Cn1ccnc1)c1ccc(F)cc1 (configuration not stated)
- MIC (Candida parapsilosis): < 0.25 µg/mL
- MIC (Candida albicans [3]): 4 µg/mL (≈ 11 µM)
- MIC (Candida albicans [4]): 0.5 µg/mL (≈ 1.37 µM)
- MIC (Candida tropicalis): 0.5 µg/mL (≈ 1.37 µM)
- MIC (Candida albicans [5]): 8 µg/mL (≈ 22 µM)
- MIC (Candida albicans [6]): 8 µg/mL (≈ 22 µM)
- MIC (Candida albicans [1]): 0.06 µg/mL (≈ 0.165 µM)
- MIC (Candida albicans [2]): 0.03 µg/mL (≈ 0.0823 µM)
- MIC (Candida albicans [7]): 2 µg/mL (≈ 5.49 µM)
- MIC (Pichia kudriavzevii): 1 µg/mL (≈ 2.74 µM)
- MIC (Cryptococcus neoformans): 0.125 µg/mL (≈ 0.343 µM)
- MIC (Nakaseomyces glabratus): 1 µg/mL (≈ 2.74 µM)

Structure (SMILES): O=c1oc2ccccc2cc1COC(Cn1ccnc1)c1ccc(F)cc1F (configuration not stated)
- MIC (Candida parapsilosis): < 0.25 µg/mL
- MIC (Candida albicans [3]): 2 µg/mL (≈ 5.23 µM)
- MIC (Candida albicans [4]): 0.5 µg/mL (≈ 1.31 µM)
- MIC (Candida tropicalis): 1 µg/mL (≈ 2.62 µM)
- MIC (Candida albicans [5]): 16 µg/mL (≈ 41.8 µM)
- MIC (Candida albicans [6]): 4 µg/mL (≈ 10.5 µM)
- MIC (Candida albicans [1]): 0.06 µg/mL (≈ 0.157 µM)
- MIC (Candida albicans [2]): 0.03 µg/mL (≈ 0.0785 µM)
- MIC (Candida albicans [7]): 2 µg/mL (≈ 5.23 µM)
- MIC (Pichia kudriavzevii): 0.5 µg/mL (≈ 1.31 µM)
- MIC (Cryptococcus neoformans): 0.06 µg/mL (≈ 0.157 µM)
- MIC (Nakaseomyces glabratus): 1 µg/mL (≈ 2.62 µM)

Structure (SMILES): O=c1oc2ccccc2cc1COC(Cn1ccnn1)c1ccc(Cl)cc1Cl (configuration not stated)
- MIC (Candida parapsilosis): > 128 µg/mL
- MIC (Candida tropicalis): > 128 µg/mL
- MIC (Candida albicans [1]): 128 µg/mL (≈ 307 µM)
- MIC (Candida albicans [2]): 128 µg/mL (≈ 307 µM)
- MIC (Pichia kudriavzevii): 128 µg/mL (≈ 307 µM)
- MIC (Cryptococcus neoformans): 32 µg/mL (≈ 76.9 µM)
- MIC (Nakaseomyces glabratus): > 128 µg/mL

Structure (SMILES): COc1cccc2cc(COC(Cn3ccnc3)c3ccc(F)cc3F)c(=O)oc12 (configuration not stated)
- MIC (Candida parapsilosis): 0.06 µg/mL (≈ 0.145 µM)
- MIC (Candida tropicalis): 32 µg/mL (≈ 77.6 µM)
- MIC (Candida albicans [1]): 0.25 µg/mL (≈ 0.606 µM)
- MIC (Candida albicans [2]): 0.25 µg/mL (≈ 0.606 µM)
- MIC (Pichia kudriavzevii): 2 µg/mL (≈ 4.85 µM)
- MIC (Cryptococcus neoformans): 0.06 µg/mL (≈ 0.145 µM)
- MIC (Nakaseomyces glabratus): 4 µg/mL (≈ 9.7 µM)

Structure (SMILES): O=c1oc2ccc([N+](=O)[O-])cc2cc1COC(Cn1ccnc1)c1ccc(Cl)cc1Cl (configuration not stated)
- MIC (Candida parapsilosis): > 128 µg/mL
- MIC (Candida tropicalis): > 128 µg/mL
- MIC (Candida albicans [1]): > 128 µg/mL
- MIC (Candida albicans [2]): 64 µg/mL (≈ 139 µM)
- MIC (Pichia kudriavzevii): > 128 µg/mL
- MIC (Cryptococcus neoformans): 128 µg/mL (≈ 278 µM)
- MIC (Nakaseomyces glabratus): 128 µg/mL (≈ 278 µM)
